One compound from PubChem BioAssay AID602191 (Broad Institute, 2012) can be followed below.

Activity calls are given as the source filed them.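 The calls were made as follows: active = fitted curve reaches 40% activation at a concentration no higher than the top valid tested dose; inconclusive = flat fit between 30% and 70% activation, or poor fit; inactive = uptake decrease, flat fit within 30% of zero, the rest.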

This test addresses Scavenger receptor class B member 1 (Mus musculus) (UniProt Q61009). Description: activators of SR-BI-mediated HDL uptake, dose response, cell-based, ldlA[mSR-BI] CHO, DiI fluorescence, cherry-pick (AID 602191).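 Also: cell fluorescence from internalized DiI-labeled HDL after washing; 0% = median of DMSO wells and 100% = twice the DMSO signal.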 The conditions noted are these: ldlA[mSR-BI] CHO cells, 3 h, at 35 µM (top of the series).

Sequence of Scavenger receptor class B member 1 (Mus musculus) (Q61009 whole entry, looked up): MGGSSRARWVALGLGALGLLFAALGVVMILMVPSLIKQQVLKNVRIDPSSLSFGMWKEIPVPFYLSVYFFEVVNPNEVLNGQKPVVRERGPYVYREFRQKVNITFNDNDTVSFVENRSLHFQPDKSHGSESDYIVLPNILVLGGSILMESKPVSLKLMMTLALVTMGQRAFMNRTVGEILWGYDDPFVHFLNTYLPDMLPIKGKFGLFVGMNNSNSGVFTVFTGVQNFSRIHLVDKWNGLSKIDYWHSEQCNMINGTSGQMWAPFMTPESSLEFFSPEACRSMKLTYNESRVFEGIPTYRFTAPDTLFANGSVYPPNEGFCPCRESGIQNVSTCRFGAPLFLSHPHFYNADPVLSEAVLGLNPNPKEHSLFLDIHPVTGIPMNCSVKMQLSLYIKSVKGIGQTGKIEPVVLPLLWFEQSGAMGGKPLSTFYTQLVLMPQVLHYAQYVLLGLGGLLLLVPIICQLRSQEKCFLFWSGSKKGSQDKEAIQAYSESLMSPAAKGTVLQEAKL

As for `COC(=O)C1=C(c2ccc(F)cc2OCc2ccccc2)C[C@@H]2CC[C@H]1N2C(=O)N1CCC(O)CC1`, the activation (HDL uptake increase) was -7.61% (inactive).
